Source: the SangsterLogP compilation

Experiment: method code SF-GLC, from DOI: 10.1248/cpb.33.2403, PMID: 4064199
For `CC(C)COC(=O)N(C)C`, the logP was 2. `CC(C)COC(N)=O` showed a logP of 0.98.

Experiment: method code SF-HPLC, from DOI: 10.1248/cpb.33.2403, PMID: 4064199
Work on `CCC(CC)COC(=O)N(CC)CC` yielded a logP of 3.6. With `CC(Cc1ccccc1)OC(=O)N(C)C` (stereo unspecified) the logP was 2.6.

Experiment: method code SF-AS, from DOI: 10.1248/cpb.33.2403, PMID: 4064199
`CNC(=O)OCc1ccccc1` showed a logP of 1.68. Work on `NC(=O)OCCc1ccccc1` yielded a logP of 1.5. With `CCN(CC)C(=O)OCc1ccccc1` the logP was 2.93. Work on `CCC(CC)COC(N)=O` yielded a logP of 1.98. For `NC(=O)OCCCc1ccccc1`, the logP was 1.96. In the case of `CN(C)C(=O)OCCc1ccccc1`, the logP is reported as 2.4. `CN(C)C(=O)OCCCc1ccccc1` gave a logP of 2.93. Molecule `CCN(CC)C(=O)OCC(C)C` has a logP of 2.82. `CC(C)OC(=O)N(C)C` showed a logP of 1.38. In the case of `NC(=O)OCc1ccc(Cl)cc1`, the logP is reported as 1.97. `NC(=O)OCCc1c[nH]c2ccccc12` showed a logP of 1.69. In the case of `NC(=O)OCCCc1cccnc1`, the logP is reported as 0.46. In the case of `CN(C)C(=O)OCCc1c[nH]c2ccccc12`, the logP is reported as 2.54. Work on `CCC(CC)COC(=O)N(C)C` yielded a logP of 2.87. `CN(C)C(=O)OCCCc1cccnc1` showed a logP of 1.44. With `CCN(CC)C(=O)OCCc1c[nH]c2ccccc12` the logP was 3.3. Molecule `CCN(CC)C(=O)OCCc1ccccc1` has a logP of 3.2.
